Source: PMC7073886, “Structure–Bioactivity Relationships of Lapatinib Derived Analogs against Schistosoma mansoni” (ACS Medicinal Chemistry Letters, 2020)
Values after ≈ are worked out from the molar mass of the structure shown. Where two headings read alike, the source gives them in different places.

Key:
Rat hepatocyte Clint = assay type: in vitro ADME; settings: rat hepatocytes, intrinsic clearance; for hepatocyte CLint: read-out: RH CLint
[1] = Human liver microsomal Clint; assay type: in vitro ADME; settings: human liver microsomes, intrinsic clearance; for microsomal CLint: read-out: HLM Clint
adult S. mansoni = assay: Phenotypic screen of adult S. mansoni worms, severity scores and descriptors; assay type: cell-based, Schistosoma mansoni; settings: for Severity Scores (10 μM) 1 h / Severity Scores (10 μM) 5 h / Severity Scores (10 μM) 24 h / Severity Scores (10 μM) 48 h / Descriptors (10 µM) 1 h / Descriptors (10 µM) 5 h / Descriptors (10 µM) 24 h / Descriptors (10 µM) 48 h: adult S. mansoni; for Severity Scores (10 μM) 1 h / Severity Scores (10 μM) 5 h / Severity Scores (10 μM) 24 h / Severity Scores (10 μM) 48 h: scale 0 (no activity) to 4 (maximal activity); for Descriptors (10 µM) 1 h / Descriptors (10 µM) 5 h / Descriptors (10 µM) 24 h / Descriptors (10 µM) 48 h: phenotypic descriptors; for bioactivity against adult S. mansoni: adult schistosomes; for Severity Scores (10 μM) 1 h / Severity Scores (10 μM) 5 h / Severity Scores (10 μM) 24 h / Severity Scores (10 μM) 48 h / bioactivity against adult S. mansoni: 10 μM
Summary of the method: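 Adult S. mansoni (NMRI isolate, ≥42 days old) were co-incubated with compounds and changes in motility, density, shape and adherence recorded visually over time and concentration. Descriptors converted to severity scores from 0 (no activity) to 4 (maximal).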

HepG2 cells = assay: Drug toxicity to HepG2 cells (MTT); assay type: cell-based; settings: for HepG2 TC50: HepG2 cells, 48 hours incubation, MTT
[2] = Human plasma protein binding (equilibrium dialysis); assay type: in vitro ADME; settings: for human PPB (plasma protein binding): 10 µM, 37 °C; for fraction unbound at 10 µM: pH 7.4, 37 °C, read-out: human PPB (plasma protein binding) (converted)
[3] = Aqueous pH 7.4 solubility; assay type: physicochemical; settings: for solubility: phosphate buffer pH 7.4, 25 °C, 20-24 h, read-out: aq sol (aqueous solubility)
[4] = Log D7.4 shake-flask octanol-water; assay type: physicochemical; settings: pH 7.4
[5] = aqueous buffer, thermodynamic from solid

Structure (SMILES)	RH CLint (Rat hepatocyte Clint)	HLM Clint [1]	Severity Scores (10 μM) 1 h (adult S. mansoni)	Severity Scores (10 μM) 5 h (adult S. mansoni)	Severity Scores (10 μM) 24 h (adult S. mansoni)	Severity Scores (10 μM) 48 h (adult S. mansoni)	HepG2 TC50 (HepG2 cells)	human PPB (plasma protein binding) [2]	solubility [3]	LogD 7.4 [4]	Descriptors (10 µM) 1 h (adult S. mansoni)	Descriptors (10 µM) 5 h (adult S. mansoni)	Descriptors (10 µM) 24 h (adult S. mansoni)	Descriptors (10 µM) 48 h (adult S. mansoni)	bioactivity against adult S. mansoni (adult S. mansoni)	logD [4]	hepatocyte CLint (Rat hepatocyte Clint)	microsomal CLint [1]	other results
O=S(=O)(c1ccc(-c2ccc3nccc(NC4CCOCC4)c3c2)cc1)N1CCOCC1 [S3f]	20 µL/min/10^6 cells	59 μL/min/mg protein	1	1	1	1	16 µM	70%	7 µM (≈ 3.17 µg/mL)	2.3	–	–	–	–	–	–	–	–	–
CN1CCC(Nc2ccnc3ccc(-c4ccc(S(=O)(=O)N5CCOCC5)cc4)cc23)CC1 [S3c]	3.7 µL/min/10^6 cells	23 μL/min/mg protein	0	0	0	0	26 µM	58%	790 µM (≈ 369 µg/mL)	–	none	none	none	none	–	–	–	–	–
O=S(=O)(c1ccc(-c2ccc3nccc(N[C@@H]4CCCC[C@H]4O)c3c2)cc1)N1CCOCC1 (relative stereo) [S3d]	30 µL/min/10^6 cells	43 μL/min/mg protein	0	0	0	0	32 µM	72%	140 µM (≈ 65.5 µg/mL)	2.4	none	none	none	none	–	–	–	–	–
O=S(=O)(c1ccc(-c2ccc3nccc(NCC4CCOCC4)c3c2)cc1)N1CCOCC1 [S3g]	72 µL/min/10^6 cells	70 μL/min/mg protein	0	0	0	0	32 µM	74%	38 µM (≈ 17.8 µg/mL)	2.7	none	none	none	none	–	–	–	–	–
C[S+]([O-])CCNc1ncc(-c2ccc3c(Nc4cnccn4)ccnc3c2)cn1 (centres unmarked) [S2b]	7.6 µL/min/10^6 cells	6 μL/min/mg protein	0	0	0	–	> 37 µM	–	11 µM (≈ 4.46 µg/mL)	1.7	none	none	none	–	–	–	–	–	–
Cc1cc2c(Nc3cnccn3)ccnc2cc1-c1cnc(N2CCN(C)CC2)nc1 [8a]	–	–	2	–	4	4	–	–	–	–	Unc, on sides	–	–	–	severe phenotypic response by 5 h	3.3	–	–	increase in toxicity against HepG2 cells compared with 3 (HepG2 cells; relative to 3): greater than 5 fold; decrease in aqueous solubility compared with 3 ([3]; relative to 3): > 2200 fold
CN(C)CCN(C)c1ncc(-c2ccc3c(Nc4cnccn4)ccnc3c2)cn1 [S2c]	55 µL/min/10^6 cells	45 μL/min/mg protein	0	0	0	0	> 38 µM	–	630 µM (≈ 252 µg/mL)	2.3	none	none	none	none	–	–	–	–	–
C[C@@H]1CNCCN1C(=O)c1ccc(-c2cnc(N3CCCN(C)CC3)nc2)cc1N [S4c]	2.6 µL/min/10^6 cells	–	0	0	0	–	> 37 µM	42%	930 µM (≈ 381 µg/mL)	-0.4	none	none	none	–	–	–	–	–	–
CN1CCCN(S(=O)(=O)c2ccc(-c3ccc4c(Nc5ccc(Cl)cn5)ccnc4c3)cc2)CC1 [5f]	–	–	2	2	2	2	–	–	–	–	–	S, on sides	Dark, S	Dark, S	moderate bioactivity recorded after 1 h	4.5	30 µL/min/1e6 cells	300 µL/min/mg	fraction unbound at 10 µM [2]: < 0.01; solubility [3, 5]: 4 µM (≈ 2.03 µg/mL)
c1cnc(Nc2ccnc3cc(-c4cnc(N5CCCNCC5)nc4)ccc23)cn1 [4g]	–	–	0	0	0	0	–	–	–	–	none	none	none	none	bioactivity of this series was not observed	1.8	4 µL/min/1e6 cells	19 µL/min/mg	fraction unbound at 10 µM [2]: 0.37; solubility [3, 5]: 53 µM (≈ 21.1 µg/mL)
COc1ccc(Nc2ccnc3cc(-c4ccc(S(=O)(=O)N5CCCN(C)CC5)cc4)ccc23)cc1Cl [5e]	–	–	0	0	0	0	–	–	–	–	none	none	none	none	complete loss of bioactivity	4.4	15 µL/min/1e6 cells	300 µL/min/mg	fraction unbound at 10 µM [2]: 0.01; solubility [3, 5]: 0.3 µM (≈ 0.161 µg/mL)
CN1CCCN(c2ccc(Nc3ccc4c(Nc5cnccn5)ccnc4c3)cc2)CC1 [S3k]	–	–	0	0	2	2	17 µM	–	–	–	none	none	S, on sides	S, on sides	–	–	14 µL/min/1e6 cells	30 µL/min/mg	–
C[C@@H]1CNCCN1C(=O)c1ccc(-c2cccc(N3CCOCC3)c2)cc1N [S4d]	–	–	0	0	0	0	> 40 µM	63%	950 µM (≈ 361 µg/mL)	1	none	none	none	none	–	–	–	–	–
COc1ccc(NC(=O)c2ccc(-c3cnc(N4CCN(C)CC4)nc3)cc2O)cc1Cl [7a]	–	–	0	0	0	–	–	–	–	–	none	none	none	–	complete loss of activity	3.8	300 µL/min/1e6 cells	44 µL/min/mg	fraction unbound at 10 µM [2]: < 0.01; solubility [3, 5]: 5 µM (≈ 2.27 µg/mL)
